The record followed here is ChEMBL document CHEMBL1144167, “Development and biological evaluation of C(60) fulleropyrrolidine-thalidomide dyad as a new anti-inflammation agent” (2008).

Structures are written as SMILES. Activity calls are given as the source filed them. The calls are words filed in the database; no cut-off is given here.

Assay [1] has as its system RAW264.7. Put plainly: Reduction in iNOS expression in LPS-activated mouse RAW264.7 cells at 1 uM pretreated for 3 hrs before LPS challenge assessed after 24 hrs by Western blot. Format: functional, cell-based. (In general: Immunoblotting shows a protein as a band on a membrane.)
For assay [2], the system named is RAW264.7. In words: Antiinflammatory activity in mouse RAW264.7 cells assessed as inhibition of LPS-induced nitric oxide production pretreated for 3 hrs before LPS challenge assessed after 24 hrs by griess assay. Format: functional, cell-based. A general note: Griess reagent forms a coloured azo dye with nitrite.
In assay [3] the test system is RAW264.7. In words: Antiinflammatory activity in mouse RAW264.7 cells assessed as inhibition of LPS-induced TNFalpha synthesis at 10 uM pretreated for 3 hrs before LPS challenge assessed after 24 hrs by ELISA relative to control. Format: functional. Details: scale not given: the % may be the effect or the level left.
Assay [4] deals with RAW264.7. In words: Antiinflammatory activity in mouse RAW264.7 cells assessed as inhibition of LPS-induced nitric oxide production at 10 uM pretreated for 3 hrs before LPS challenge assessed after 24 hrs by griess assay relative to control. More on the design: scale not given: the % may be the effect or the level left. Format: functional.
Assay [5] has as its system RAW264.7. Put plainly: Reduction in pERK1/2 expression in LPS-activated mouse RAW264.7 cells at 10 uM pretreated for 3 hrs before LPS challenge assessed after 24 hrs by Western blot. Format: functional, cell-based.
In assay [6] the test system is RAW264.7. In words: Antiinflammatory activity in mouse LPS-activated RAW264.7 cells assessed as ROS scavenging activity at 10 uM pretreated for 3 hrs before LPS challenge measured by decrease in fluorescent intensity by confocal microscopy. The class given is functional, cell-based.
Assay [7] deals with RAW264.7. Put plainly: Reduction in iNOS expression in LPS-activated mouse RAW264.7 cells at 10 uM pretreated for 3 hrs before LPS challenge assessed after 24 hrs by Western blot. The class given is functional, cell-based.
The test system of assay [8] is RAW264.7. In words: Antiinflammatory activity in mouse LPS-activated RAW264.7 cells assessed as mean fluorescent intensity of ROS scavenging activity at 10 uM pretreated for 3 hrs before LPS challenge by FACS. Format: functional.

Take `O=C1CCC(N2C(=O)c3ccccc3C2=O)C(=O)N1` (stereo not drawn) [THALIDOMIDE]: the result in assay [1], in assay [5], in assay [6] and in assay [7] was Active. Further, the Activity result in assay [2] was “Dose-dependent effect”; in assay [3] it was 55.5%; in assay [4], 44.1%. Besides, in assay [8], the Flu intensity was 468.37.
